# In ChEMBL document CHEMBL6120977, “Structure-Affinity-Pharmacokinetics Relationships of Novel 18F-Labeled 1,4-Diazepane Derivatives for Orexin 1 Receptor Imaging” (J Med Chem, 2024):
# Tests used:
# Format in all cases: cell-based
# [1] = target: T1, Orexin/Hypocretin receptor type 1 (Homo sapiens, UniProt O43613); assay: Displacement of […]5IBOM from OX1R (unknown origin) transfected in CHO cells assessed as inhibition constant incubated for 1.5 hrs by automated gamma-counter analysis
# T1 sequence (O43613 whole entry): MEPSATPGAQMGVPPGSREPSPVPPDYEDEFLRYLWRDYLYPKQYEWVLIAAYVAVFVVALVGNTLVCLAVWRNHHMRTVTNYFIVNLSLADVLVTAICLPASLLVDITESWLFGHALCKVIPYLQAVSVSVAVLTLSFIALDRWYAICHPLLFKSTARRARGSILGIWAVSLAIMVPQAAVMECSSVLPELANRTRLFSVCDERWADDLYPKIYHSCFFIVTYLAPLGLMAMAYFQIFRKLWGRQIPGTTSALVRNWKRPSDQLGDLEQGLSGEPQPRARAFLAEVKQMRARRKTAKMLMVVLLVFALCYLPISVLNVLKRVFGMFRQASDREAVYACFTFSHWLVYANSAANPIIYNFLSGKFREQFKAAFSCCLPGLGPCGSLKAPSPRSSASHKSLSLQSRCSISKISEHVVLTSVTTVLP
# [2] = Selectivity ratio of Ki for OX2R (unknown origin) transfected in CHO cells to Ki for OX1R (unknown origin) transfected in CHO cells
# Orexin receptor type 2 = target: T2, Orexin receptor type 2 (Homo sapiens, UniProt O43614); assay: Displacement of […]5IBOM from OX2R (unknown origin) transfected in CHO cells assessed as inhibition constant incubated for 1.5 hrs by automated gamma-counter analysis
# T2 sequence (O43614 whole entry): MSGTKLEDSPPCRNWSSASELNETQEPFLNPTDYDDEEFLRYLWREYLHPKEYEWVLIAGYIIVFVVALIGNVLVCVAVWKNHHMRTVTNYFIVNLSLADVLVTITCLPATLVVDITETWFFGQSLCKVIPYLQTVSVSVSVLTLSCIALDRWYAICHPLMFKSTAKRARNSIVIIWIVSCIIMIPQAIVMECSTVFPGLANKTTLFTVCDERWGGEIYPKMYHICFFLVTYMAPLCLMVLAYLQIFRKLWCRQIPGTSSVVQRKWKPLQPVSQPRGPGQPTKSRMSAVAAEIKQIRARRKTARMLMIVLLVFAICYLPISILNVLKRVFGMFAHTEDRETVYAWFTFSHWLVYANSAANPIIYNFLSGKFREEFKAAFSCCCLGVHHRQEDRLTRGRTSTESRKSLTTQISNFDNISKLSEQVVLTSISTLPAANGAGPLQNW
Compound,Ki [1],Ki (Orexin receptor type 2),Ratio Ki [2]
C[C@H]1CN(c2nc3ccccc3s2)CCCN1C(=O)c1cc(F)ccc1-n1nccn1,2.33 nM,62.8 nM,26.9
Cc1ccc2nc(N3CCCN(C(=O)c4cc(F)ccc4-n4nccn4)[C@@H](C)C3)sc2c1,7.46 nM,26.1 nM,3.5
Cc1ccc(-n2nccn2)c(C(=O)N2CCCN(c3nc4cc(F)ccc4o3)C[C@@H]2C)c1,2.35 nM,8.64 nM,3.68

# Stronger by Ki [1], values ahead:
Ki [1],Ki (Orexin receptor type 2),Compound,Ratio Ki [2]
1.89 nM,15.5 nM,C[C@H]1CN(c2nc3ccc(F)cc3s2)CCCN1C(=O)c1cc(F)ccc1-n1nccn1,8.19
0.64 nM,5.17 nM,C[C@H]1CN(c2nc3ccc(F)cc3s2)CCCN1C(=O)c1ccccc1-n1nccn1,8.08
2.14 nM,20.6 nM,Cc1ccc(-n2nccn2)c(C(=O)N2CCCN(c3nc4ccc(F)cc4s3)C[C@@H]2C)c1,9.63
